Data from patent publication US20020137929A1, “1 - (3-heterocyclylphenyl) isothiourea, -isourea, -guanidine and -amidine herbicidal agents” (Intellectual Property Department, BASF Aktiengesellschaft, priority 1998, published 2002).

Experiments:
ABUTH (Velvetleaf) [1] = experiment: Postemergence herbicidal evaluation; assay type: in vivo, Abutilon theophrasti; conditions: postemergence
How it was run: (§1)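 Rate range approx. 0.0156–0.500 kg/ha. Foliar application at 40 psi to ~2-week seedlings; surfactant 0.5% TWEEN 20 in 50/50 acetone/water. Evaluation 4–5 wk post-treatment by 0–9 visual injury score, means of replicate tests.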

[2] = tested on: IPOHE (Morningglory, Ivyleaf); experiment: Postemergence herbicidal evaluation; assay type: in vivo, Ipomoea hederacea; conditions: postemergence
How it was run: as §1

SETVI (Foxtail, Green) = experiment: Postemergence herbicidal evaluation; assay type: in vivo, Setaria viridis; conditions: postemergence
How it was run: as §1

[3] = tested on: GLXMAW (Soybean, Williams); experiment: Postemergence herbicidal evaluation; assay type: in vivo, Glycine max, (L.) Merr. cv Williams; conditions: postemergence
How it was run: as §1

ZEAMX (Corn, Field) = experiment: Postemergence herbicidal evaluation; assay type: in vivo, Zea mays; conditions: postemergence
How it was run: as §1

ABUTH (Velvetleaf) [4] = experiment: Preemergence herbicidal evaluation; assay type: in vivo, Abutilon theophrasti; conditions: preemergence, rated 4-5 weeks after treatment, 0-9 scale
How it was run: (§2)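 Steps: mix seeds into potting soil; plant atop ~1 inch soil; spray compound in aqueous acetone (~0.0156-0.500 kg/ha equivalent); maintain in greenhouse with watering; rate visually 0-9 versus control at 4-5 weeks.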

AMBEL (Ragweed, Common) = experiment: Preemergence herbicidal evaluation; assay type: in vivo, Ambrosia artemisifolia; conditions: preemergence, rated 4-5 weeks after treatment, 0-9 scale
How it was run: as §2

CASOB (Sicklepod) = experiment: Preemergence herbicidal evaluation; assay type: in vivo, Cassia obtusifolia; conditions: preemergence, rated 4-5 weeks after treatment, 0-9 scale
How it was run: as §2

[5] = tested on: IPOHE (Morningglory, Ivyleaf); experiment: Preemergence herbicidal evaluation; assay type: in vivo, Ipomoea hederacea; conditions: preemergence, rated 4-5 weeks after treatment, 0-9 scale
How it was run: as §2

ECHCG (Barnyardgrass) = experiment: Preemergence herbicidal evaluation; assay type: in vivo, Echinochloa crus-galli; conditions: preemergence, rated 4-5 weeks after treatment, 0-9 scale
How it was run: as §2

[6] = tested on: ECHORC (Watergrass (Calif.)); experiment: Preemergence weed control under flooded paddy conditions; assay type: in vivo, Echinochloa oryzoides; conditions: rated 3-4 weeks after treatment
How it was run: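 Herbicidal effect is scored visually on a 0-9 scale against an untreated control, three to four weeks after compounds are pipetted into the flood water (1.5 to 3 cm deep) over seeds planted in silt loam at 0.5 cm depth. Rates: about 0.0313 to 0.500 kg/ha.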

CYPSE (Flatsedge) = experiment: as above; assay type: in vivo, Cyperus serotinus; conditions: rated 3-4 weeks after treatment
How it was run: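 Using flooded silt loam (water 1.5 to 3 cm deep), seeds sown in the top 0.5 cm were exposed preemergence to compound pipetted into the flood at about 0.0313 to 0.500 kg/ha. Effects were scored 0-9 by eye three to four weeks later.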

[7] = tested on: ECHORC (Watergrass (Calif.)); experiment: Postemergence weed control under flooded paddy conditions; assay type: in vivo, Echinochloa oryzoides; conditions: postemergence weeds, rated 3 to 4 weeks after treatment
How it was run: (§3)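 Herbicidal effect is judged by eye on a 0–9 scale versus control, 3–4 weeks after dosing. Dosing is into flood water kept 1.5–3 cm over the soil, at about 0.0313–0.500 kg/ha in aqueous/acetone 50/50 v/v, on 3–5 cm weeds and 1.5–2.5-leaf rice seedlings.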

CYPIR (Rice Flatsedge) = experiment: as above; assay type: in vivo, Cyperus iria; conditions: postemergence weeds, rated 3 to 4 weeks after treatment
How it was run: as §3

SMILES: C=CCN1C(=O)C(CC(=O)OCCF)SC1=Nc1cc(-n2c(=O)cc(C(F)(F)F)n(C)c2=O)c(F)cc1Cl (stereo not drawn) [Compound 86, 2-Fluoroethyl 3-allyl-2-{{2-chloro-5-[3,6-dihydro-3-methyl-2,6-dioxo-4-(trifluoromethyl)-1(2H)-pyrimidinyl]-4-fluorophenyl}imino}-4-oxo-5-thiazolidineacetate]
- ABUTH herbicidal rating (ABUTH (Velvetleaf) [1]; rate 0.0156 kg/ha): 9.0
- ABUTH herbicidal rating (ABUTH (Velvetleaf) [1]; rate 0.0313 kg/ha): 9.0
- ABUTH herbicidal rating (ABUTH (Velvetleaf) [1]; rate 0.0625 kg/ha): 9.0
- ABUTH herbicidal rating (ABUTH (Velvetleaf) [1]; rate 0.1250 kg/ha): 9.0
- IPOHE herbicidal rating ([2]; rate 0.0156 kg/ha): 9.0
- IPOHE herbicidal rating ([2]; rate 0.0313 kg/ha): 9.0
- IPOHE herbicidal rating ([2]; rate 0.0625 kg/ha): 9.0
- IPOHE herbicidal rating ([2]; rate 0.1250 kg/ha): 9.0
- SETVI herbicidal rating (SETVI (Foxtail, Green); rate 0.0156 kg/ha): 8.0
- SETVI herbicidal rating (SETVI (Foxtail, Green); rate 0.0313 kg/ha): 9.0
- SETVI herbicidal rating (SETVI (Foxtail, Green); rate 0.0625 kg/ha): 9.0
- SETVI herbicidal rating (SETVI (Foxtail, Green); rate 0.1250 kg/ha): 9.0
- GLXMAW herbicidal rating ([3]; rate 0.0156 kg/ha): 8.5
- GLXMAW herbicidal rating ([3]; rate 0.0313 kg/ha): 9.0
- GLXMAW herbicidal rating ([3]; rate 0.0625 kg/ha): 9.0
- GLXMAW herbicidal rating ([3]; rate 0.1250 kg/ha): 9.0
- ZEAMX herbicidal rating (ZEAMX (Corn, Field); rate 0.0156 kg/ha): 7.5
- ZEAMX herbicidal rating (ZEAMX (Corn, Field); rate 0.0313 kg/ha): 8.0
- ZEAMX herbicidal rating (ZEAMX (Corn, Field); rate 0.0625 kg/ha): 8.5
- ZEAMX herbicidal rating (ZEAMX (Corn, Field); rate 0.1250 kg/ha): 9.0
- ABUTH rating (ABUTH (Velvetleaf) [4]; 0.0156 kg/ha): 9.0
- ABUTH rating (ABUTH (Velvetleaf) [4]; 0.0313 kg/ha): 9.0
- ABUTH rating (ABUTH (Velvetleaf) [4]; 0.0625 kg/ha): 9.0
- ABUTH rating (ABUTH (Velvetleaf) [4]; 0.1250 kg/ha): 9.0
- ABUTH rating (ABUTH (Velvetleaf) [4]; 0.2500 kg/ha): 9.0
- ABUTH rating (ABUTH (Velvetleaf) [4]; 0.5000 kg/ha): 9.0
- AMBEL rating (AMBEL (Ragweed, Common); 0.0156 kg/ha): 0.0
- AMBEL rating (AMBEL (Ragweed, Common); 0.0313 kg/ha): 0.0
- AMBEL rating (AMBEL (Ragweed, Common); 0.0625 kg/ha): 6.0
- AMBEL rating (AMBEL (Ragweed, Common); 0.1250 kg/ha): 9.0
- AMBEL rating (AMBEL (Ragweed, Common); 0.2500 kg/ha): 9.0
- AMBEL rating (AMBEL (Ragweed, Common); 0.5000 kg/ha): 9.0
- CASOB rating (CASOB (Sicklepod); 0.0156 kg/ha): 0.0
- CASOB rating (CASOB (Sicklepod); 0.0313 kg/ha): 0.0
- CASOB rating (CASOB (Sicklepod); 0.0625 kg/ha): 0.0
- CASOB rating (CASOB (Sicklepod); 0.1250 kg/ha): 0.0
- CASOB rating (CASOB (Sicklepod); 0.2500 kg/ha): 0.0
- CASOB rating (CASOB (Sicklepod); 0.5000 kg/ha): 3.0
- IPOHE rating ([5]; 0.0156 kg/ha): 0.0
- IPOHE rating ([5]; 0.0313 kg/ha): 0.0
- IPOHE rating ([5]; 0.0625 kg/ha): 8.0
- IPOHE rating ([5]; 0.1250 kg/ha): 9.0
- IPOHE rating ([5]; 0.2500 kg/ha): 9.0
- IPOHE rating ([5]; 0.5000 kg/ha): 9.0
- ECHCG rating (ECHCG (Barnyardgrass); 0.0156 kg/ha): 0.0
- ECHCG rating (ECHCG (Barnyardgrass); 0.0313 kg/ha): 0.0
- ECHCG rating (ECHCG (Barnyardgrass); 0.0625 kg/ha): 0.0
- ECHCG rating (ECHCG (Barnyardgrass); 0.1250 kg/ha): 0.0
- ECHCG rating (ECHCG (Barnyardgrass); 0.2500 kg/ha): 0.0
- ECHCG rating (ECHCG (Barnyardgrass); 0.5000 kg/ha): 4.0
- ECHORC herbicidal effect rating ([6]; 0.0313 kg/ha): 5.0
- ECHORC herbicidal effect rating ([6]; 0.0625 kg/ha): 6.0
- ECHORC herbicidal effect rating ([6]; 0.1250 kg/ha): 9.0
- ECHORC herbicidal effect rating ([6]; 0.2500 kg/ha): 9.0
- CYPSE herbicidal effect rating (CYPSE (Flatsedge); 0.0313 kg/ha): 0.0
- CYPSE herbicidal effect rating (CYPSE (Flatsedge); 0.0625 kg/ha): 0.0
- CYPSE herbicidal effect rating (CYPSE (Flatsedge); 0.1250 kg/ha): 3.0
- CYPSE herbicidal effect rating (CYPSE (Flatsedge); 0.2500 kg/ha): 9.0
- Herbicidal rating ECHORC ([7]; Rate 0.0313 kg/ha): 5.0
- Herbicidal rating ECHORC ([7]; Rate 0.0625 kg/ha): 6.0
- Herbicidal rating ECHORC ([7]; Rate 0.1250 kg/ha): 9.0
- Herbicidal rating ECHORC ([7]; Rate 0.2500 kg/ha): 9.0
- Herbicidal rating CYPIR (CYPIR (Rice Flatsedge); Rate 0.0313 kg/ha): 3.0
- Herbicidal rating CYPIR (CYPIR (Rice Flatsedge); Rate 0.0625 kg/ha): 7.0
- Herbicidal rating CYPIR (CYPIR (Rice Flatsedge); Rate 0.1250 kg/ha): 8.0
- Herbicidal rating CYPIR (CYPIR (Rice Flatsedge); Rate 0.2500 kg/ha): 9.0
